Test results published in paper PMC6770581, “New Thalidomide-Resembling Dicarboximides Target ABC50 Protein and Show Antileukemic and Immunomodulatory Activities” (Biomolecules, 2019).

Tests used:
MOLT-4 cells = assay: MTT cytotoxicity assay, MOLT-4; format: cell-based; details: Homo sapiens, 48 h, mean ± SD
Experimental: (§1) Human umbilical vein endothelial cells (purchased from Life Technologies, Carlsbad, CA, USA) were cultured according to the manufacturer’s instructions in Medium 200 supplemented with Low Serum Growth Supplement. 1 × 10^4 cells were seeded on each well on a 96-well plate (Nunc, Roskilde, Denmark). The HeLa (human cervix carcinoma, cat. #93021013), CFPAC (human pancreatic adenocarcinoma, cat. #91112501), K562 (chronic myelogenous leukemia, cat. #89121407), HL-60 (acute myelogenous leukemia, cat. #98070106), and MOLT-4 (Human acute T lymphoblastic leukemia, cat. #85011413) cells were purchased from European Collection of Authenticated Cell Cultures (ECACC). They were cultured in an RPMI 1640 medium supplemented with antibiotics (streptomycin, penicillin) and 10% fetal calf serum (20% for HL60), in a 5% CO2-95% air atmosphere. 7 × 10^3 cells were seeded on each well on a 96-well plate (Nunc). 24 hours later the cells were exposed to the test compounds. The aliquots of stock solutions of the test compounds (freshly prepared in DMSO) were added to the cell cultures to yield final concentrations of 1, 10^−1, 10^−2, 10^−3, 10^−4, and 10^−5 mM. The concentration of DMSO in the cell culture medium was 1%. The IC50 value (the concentration of a test compound required to reduce the cell survival fraction to 50% of the control) was calculated from a dose-response curve and used as a measure of cellular sensitivity to a given treatment. The IC50 values are given as means (± standard deviation (SD)) from 2 independent experiments with 4 technical replicates. The cytotoxicity of all compounds was determined by the MTT (3-(4,5-dimethylthiazol-2-yl)-2,5-diphenyltetrazolium bromide) assay (Sigma, St. Louis, MO, USA). Briefly, after 24 h or 48 h of incubation with a given compound, the cells were treated with the MTT reagent and incubation was continued for 2 h. MTT-formazan crystals were dissolved in 20% SDS and 50% DMF at pH 4.7 and VIS light absorption was measured at 570 and 650 nm on a microplate reader FLUOstar Omega (BMG Labtech, Offenburg, Germany). As a control (100% viability), cells grown in the presence of 1% DMSO were used.

ABC50 [1] = biological target: T1, ABC50 (Homo sapiens, UniProt Q8NE71); assay: ABC50 level by Western blotting in K562 cells (PROTAC approach); format: cell-based; set-up: endogenous in cells; host or cells: K562 cell lysate; details: K562, 96 h, 7 (30 µM), 8 (15 µM), 9 (30 µM)
Experimental: (§2) Cells were lysed in TBS buffer containing 1% Triton X-100 and Complete® protease inhibitor cocktail (Roche) for 15 min on ice with occasional vortexing. Insoluble material was centrifuged (12,000 rpm, 15 min, 4 °C) and supernatants were collected. Total protein concentration was measured with DC Protein Assay (Bio-Rad, Hercules, CA, USA). Cell lysates containing 30 µg of total protein were mixed with Laemli buffer supplemented with SDS and β-mercaptoethanol, denatured (10 min, 95 °C) and subjected to sodium dodecyl sulfate polyacrylamide gel electrophoresis (SDS-PAGE) electrophoresis (4% stacking and 10% resolving gels). Resolved proteins were electrotransferred (semi-dry, 90 min, 1.5 mA/cm^2) to a 0.45 µm nitrocellulose membrane (Thermo Scientific, Waltham, MA, USA). Membranes were blocked for 2 hours in TBST buffer (20 mM Tris-HCl pH 7.5, 0.9% NaCl, 0.1% Tween 20) containing 5% BSA (BioShop, Burlington, ON, Canada) and probed with primary antibodies (overnight at 4 °C) diluted in TBST buffer with 0.5% BSA. Tubulin served as a loading control for IB experiments. Anti IKZF3 (rabbit monoclonal, dilution 1:500), anti IKZF1 (rabbit polyclonal, dilution 1:500) were from Abcam. Anti IRF4 (rabbit polyclonal, dilution 1:500) were from Cell Signaling Technology. Anti α-tubulin (mouse monoclonal IgG, 1:1000) was from Sigma Aldrich. Anti ABC50 antibodies (mouse monoclonal ABC5H06, dilution 1:100) was from Abcam. After extensive washing with TBST buffer, membranes were probed with secondary goat anti-rabbit or goat anti-mouse HRP-conjugated IgG (1:5000 in TBST, Santa Cruz Biotech, Dallas, TX, USA) for 45 min at room temperature. […] Protein bands intensities were analysed using Image Quant (version 5.0, GE Healthcare Life Sciences, Pittsburgh, PA, USA).
(§3) ABC50 was identified as the target of the test dicarboximides in the pull-down experiments. […] It must be noted that 7, 8 and 9 were evaluated as mixtures of enantiomers. K562 and HeLa cells were incubated with chimeras 7 (30 µM), 8 (15 µM) and 9 (30 µM) for 96 h and subsequently the level of ABC50 was determined by Western blotting. […]

[2] = test system: HUVEC (human umbilical vein endothelial cells); assay: MTT cytotoxicity assay, HUVEC; format: cell-based; details: 48 h, mean ± SD
Experimental: as §1

ABC50 [3] = biological target: T1, ABC50; assay: ABC50 level by Western blotting in HeLa cells (PROTAC approach); format: cell-based; set-up: endogenous in cells; details: 96 h, 7 (30 µM), 8 (15 µM), 9 (30 µM)
Experimental: as §2, §3

HeLa cells = assay: MTT cytotoxicity assay, HeLa; format: cell-based; details: Homo sapiens, 48 h, mean ± SD
Experimental: as §1

K562 cells = assay: MTT cytotoxicity assay, K562; format: cell-based; details: Homo sapiens, 48 h, mean ± SD
Experimental: as §1

T1 sequence (Q8NE71 whole entry): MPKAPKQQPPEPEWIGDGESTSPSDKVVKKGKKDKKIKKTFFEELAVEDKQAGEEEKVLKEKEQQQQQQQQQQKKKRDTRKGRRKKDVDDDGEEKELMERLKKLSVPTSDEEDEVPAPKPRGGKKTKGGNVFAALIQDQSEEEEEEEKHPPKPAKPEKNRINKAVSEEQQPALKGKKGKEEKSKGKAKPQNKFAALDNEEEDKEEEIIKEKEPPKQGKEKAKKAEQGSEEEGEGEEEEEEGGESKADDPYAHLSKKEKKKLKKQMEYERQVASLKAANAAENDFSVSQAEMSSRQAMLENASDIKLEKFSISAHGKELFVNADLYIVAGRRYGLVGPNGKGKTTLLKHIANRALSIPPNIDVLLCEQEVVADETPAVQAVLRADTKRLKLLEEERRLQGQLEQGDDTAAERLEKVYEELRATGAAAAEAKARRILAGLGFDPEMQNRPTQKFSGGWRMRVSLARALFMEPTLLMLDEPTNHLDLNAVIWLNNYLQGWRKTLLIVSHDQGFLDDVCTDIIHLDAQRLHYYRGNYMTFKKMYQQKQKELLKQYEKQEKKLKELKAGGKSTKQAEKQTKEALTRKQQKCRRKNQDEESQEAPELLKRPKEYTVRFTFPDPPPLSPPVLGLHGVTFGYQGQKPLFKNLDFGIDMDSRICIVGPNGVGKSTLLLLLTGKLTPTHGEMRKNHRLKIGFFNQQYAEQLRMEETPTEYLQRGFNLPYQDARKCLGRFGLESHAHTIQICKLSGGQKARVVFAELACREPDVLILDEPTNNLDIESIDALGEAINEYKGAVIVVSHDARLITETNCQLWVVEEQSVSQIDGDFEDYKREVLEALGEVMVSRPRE

SMILES | IC50 (MOLT-4 cells) [µM] | level of ABC50 (Western blotting) (ABC50 [1]) | IC50 [2] [µM] | level of ABC50 (Western blotting) (ABC50 [3]) | IC50 (HeLa cells) [µM] | melting point [°C] | IC50 (K562 cells) [µM]
CC12C(=O)C(C)(C(c3ccccc3)=C1c1ccccc1)C1C(=O)N(C3CCC(=O)NC3=O)C(=O)C12 (stereo not drawn) [Compound 7, 4-(2,6-dioxopiperidin-3-yl)-1,7-dimethyl-8,9-diphenyl-4-azatricyclo[5.2.1.0^2,6]dec-8-ene-3,5,10-trione] | 150 | significantly reduced | 200 | significantly downregulated | 180 | 217 to 218 | 170
CCC12C(=O)C(CC)(C(c3ccccc3)=C1c1ccccc1)C1C(=O)N(C3CCC(=O)NC3=O)C(=O)C12 (stereo not drawn) [Compound 8, 4-(2,6-dioxopiperidin-3-yl)-1,7-diethyl-8,9-diphenyl-4-azatricyclo[5.2.1.0^2,6]dec-8-ene-3,5,10-trione] | 18 | significantly reduced | 65 | significantly downregulated | > 200 | 232 to 234 | 25
O=C1CCC(N2C(=O)C3C(C2=O)C2(c4ccccc4)C(=O)C3(c3ccccc3)C(c3ccccc3)=C2c2ccccc2)C(=O)N1 (stereo not drawn) [Compound 9, 4-(2,6-dioxopiperidin-3-yl)-1,7,8,9-tetraphenyl-4-azatricyclo[5.2.1.0^2,6]dec-8-ene-3,5,10-trione] | > 200 | significantly reduced | > 200 | didn’t have such pronounced effect | > 200 | 230 to 232 | > 200
